Test results from patent US5603755A, “Preventive agent for fouling organisms” (Ihara Chemical Industry Co., Ltd., priority 1994, dated 1997).

Tested on: Balanus amphitrite
Test: whole plant or invertebrate
Conditions: 0.1 ppm; cypris larvae, 20° C., 24 hours (Table 1)
Procedure: The nauplii of Balanus amphitrite, hatched in a natural sea water sterilized by filtration were tamed with a diatom feed to convert them into cypris larvae (settling stage larvae). Ten of these cypris larvae and 4 ml of a natural sea water sterilized by filtration were placed in a laboratory dish having a diameter of 3 cm. 10 mg of a present agent compound was made into 1 g of an emulsion with an emulsifier consisting of cyclohexanone and Tween 80 (a trade name of Kao Atlas Co., Ltd.), and the emulsion was diluted to a given concentration of present agent compound with an artificial sea water. 1 ml of the diluted solution was added into the above laboratory dish. The laboratory dish was allowed to stand in a thermostat of 20° C. for 24 hours, and the number of dead cypris larvae was examined. This test was repeated three times, and the mortality rate of Balanus amphitrite at a given concentration of present agent compound was determined.
A test for mortality rate was conducted in the same manner as in Test 1 except that bis(tributyltin) oxide (hereinafter referred to simply as "TBTO" in some cases) was used as a test compound in place of the present agent compound.
Tests for mortality rate were conducted in the same manner as in Tests 1-10 except that the present agent compounds were changed to those shown in Table 4.
Tests for mortality rate were conducted in the same manner as in Tests 1-10 except that the present agent compounds were changed to those shown in Table 6.

SMILES	Mortality rate [%]
CCC[CH2][Sn]([CH2]CCC)([CH2]CCC)[O][Sn]([CH2]CCC)([CH2]CCC)[CH2]CCC [TBTO, bis(tributyltin) oxide, reference compound]	50

Same assay, conditions: Amphibalanus amphitrite, 24 h, read-out: Mortality rate

SMILES	mortality at 0.1 ppm [%]
CC(C)(C)c1csc(C(C#N)=C(O)c2ccccc2Cl)n1 [Test 2]	100
Cc1ccccc1-c1csc(C(C#N)=C(O)c2ccccc2I)n1 [Test 4]	100
N#CC(=C(O)c1ccccc1Cl)c1nc(-c2ccccc2)cs1 [Test 1]	100
Cc1ccccc1-c1csc(C(C#N)=C(O)c2ccccc2Br)n1 [Test 3]	100
N#CC(=C(O)c1ccccc1Cl)c1nc(-c2ccccc2F)cs1 [Test 6]	100
N#CC(=C(O)c1c(F)cccc1Cl)c1nc(-c2ccccc2F)cs1 [Test 7]	100
N#CC(=C(O)c1ccccc1Cl)c1nc(-c2ccccc2Cl)cs1 [Test 5]	100

Same assay, conditions: barnacle, in vivo, 24 h

SMILES	Mortality rate [%]
CCCCS(=O)(=O)OC(=C(C#N)c1nc(-c2ccccc2)cs1)c1ccccc1Cl [Test 19]	100
N#CC(=C(OS(=O)(=O)c1ccccc1)c1ccccc1Cl)c1nc(-c2ccccc2)cs1 [Test 20]	100
CS(=O)(=O)OC(=C(C#N)c1nc(-c2ccccc2)cs1)c1ccccc1Cl [Test 17]	100
CCCCC(=O)OC(=C(C#N)c1nc(-c2ccccc2)cs1)c1ccccc1Cl [Test 15]	100
Cc1ccc(S(=O)(=O)OC(=C(C#N)c2nc(-c3ccccc3)cs2)c2ccccc2Cl)cc1 [Test 18]	100
CC(=O)OC(=C(C#N)c1nc(-c2ccccc2)cs1)c1ccccc1Cl [Test 13]	100
N#CC(=C(OC(=O)c1ccccc1)c1ccccc1Cl)c1nc(-c2ccccc2)cs1 [Test 16]	100
Cc1ccc(C(=O)OC(=C(C#N)c2nc(-c3ccccc3)cs2)c2ccccc2Cl)cc1 [Test 14]	100

Tested on: not listed separately
Test: in vivo
Conditions: rat, po

SMILES	LD50 [mg/kg]
N#CC(C(=O)c1ccccc1Cl)=C1NC(c2ccccc2)=CS1 [3-(2-chlorophenyl)-2-(4-phenyl-2,3-dihydrothiazole-2-ylidene)-3-oxopropionitrile]	≥ 5000
